In BindingDB's records for doi:10.1021/acs.jmedchem.9b01033 (Taipei Medical University, 2020):

Experiment: Inhibition of CFD in 10% human serum assessed as reduction in alternate complement pathway-mediated hemolysis incubated for 1 hr

C[C@H](NC(=O)[C@@H]1C[C@H]2C[C@H]2N1C(=O)Cn1nc(C(N)=O)c2cccnc21)c1cccc(Cl)c1F
IC50: 6 nM
